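Test compounds were applied to cells in 96-well plates for 48 hours at 5 doses. Here, GI50 denotes the concentration required for 50% inhibition of growth.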 Activity calls are given as the source filed them. No stated cut-off is given here; in the data, active = GI50 up to about 1.1 µM and inactive = higher.
What was measured:
Assay in all cases: inhibition of tumour cell growth, NCI panel, 48 h
[1] = system: 786-0
[2] = system: A498
[3] = system: A549
[4] = system: ACHN
[5] = system: BT-549
[6] = system: CCRF-CEM
[7] = system: COLO 205
[8] = system: DU-145
[9] = system: EKVX
[10] = system: HCC 2998
[11] = system: HCT-116
[12] = system: HCT-15
[13] = system: HL-60
[14] = system: HOP-62
[15] = system: HOP-92
[16] = system: HT-29
[17] = system: Hs-578T
[18] = system: IGROV-1
[19] = system: K562
[20] = system: KM12
[21] = system: LOX IMVI
[22] = system: M14
[23] = system: MCF7
[24] = system: MDA-MB-231
[25] = system: MDA-MB-435
[26] = system: MDA-N
[27] = system: MOLT-4
[28] = system: Malme-3M
[29] = system: NCI-H226
[30] = system: NCI-H23
[31] = system: NCI-H460
[32] = system: NCI-H522
[33] = system: NCI/ADR-RES
[34] = system: OVCAR-3
[35] = system: OVCAR-4
[36] = system: OVCAR-5
[37] = system: OVCAR-8
[38] = system: PC-3
[39] = system: RPMI-8226
[40] = system: RXF 393
[41] = system: SF-268
[42] = system: SF-295
[43] = system: SF-539
[44] = system: SK-MEL-28
[45] = system: SK-MEL-2
[46] = system: SK-MEL-5
[47] = system: SK-OV-3
[48] = system: SN12C
[49] = system: SNB-19
[50] = system: SNB-75
[51] = system: SR
[52] = system: SW-620
[53] = system: T47D
[54] = system: TK-10
[55] = system: U-251
[56] = system: UACC-257
[57] = system: UACC-62
[58] = system: UO-31
[59] = system: CAKI-1

O=C(O)c1ccc2c(c1)CC1(C2)Cc2cc3c(cc2C1=O)CCC3 (stereo not drawn)
GI50 [1]: > 100 µM (inactive)
GI50 [2]: 19.5 µM (inactive)
GI50 [3]: 69 µM (inactive)
GI50 [4]: > 100 µM (inactive)
GI50 [5]: > 100 µM (inactive)
GI50 [6]: > 100 µM (inactive)
GI50 [7]: > 100 µM (inactive)
GI50 [8]: > 100 µM (inactive)
GI50 [9]: > 100 µM (inactive)
GI50 [10]: > 100 µM (inactive)
GI50 [11]: > 100 µM (inactive)
GI50 [12]: 79.6 µM
GI50 [13]: > 100 µM (inactive)
GI50 [14]: > 100 µM (inactive)
GI50 [15]: 69 µM (inactive)
GI50 [16]: > 100 µM (inactive)
GI50 [17]: > 100 µM (inactive)
GI50 [18]: > 100 µM (inactive)
GI50 [19]: > 100 µM (inactive)
GI50 [20]: > 100 µM (inactive)
GI50 [21]: > 100 µM (inactive)
GI50 [22]: > 100 µM (inactive)
GI50 [23]: > 100 µM (inactive)
GI50 [24]: > 100 µM (inactive)
GI50 [25]: > 100 µM (inactive)
GI50 [26]: > 100 µM (inactive)
GI50 [27]: > 100 µM (inactive)
GI50 [28]: > 100 µM (inactive)
GI50 [29]: > 100 µM (inactive)
GI50 [30]: > 100 µM (inactive)
GI50 [31]: > 100 µM (inactive)
GI50 [32]: > 100 µM (inactive)
GI50 [33]: > 100 µM (inactive)
GI50 [34]: > 100 µM (inactive)
GI50 [35]: > 100 µM (inactive)
GI50 [36]: > 100 µM (inactive)
GI50 [37]: 97.9 µM (inactive)
GI50 [38]: > 100 µM (inactive)
GI50 [39]: > 100 µM (inactive)
GI50 [40]: 73.5 µM (inactive)
GI50 [41]: 46.8 µM (inactive)
GI50 [42]: 93.3 µM (inactive)
GI50 [43]: > 100 µM (inactive)
GI50 [44]: > 100 µM (inactive)
GI50 [45]: > 100 µM (inactive)
GI50 [46]: 93.8 µM (inactive)
GI50 [47]: > 100 µM (inactive)
GI50 [48]: > 100 µM (inactive)
GI50 [49]: > 100 µM (inactive)
GI50 [50]: 56 µM (inactive)
GI50 [51]: > 100 µM (inactive)
GI50 [52]: > 100 µM (inactive)
GI50 [53]: 34.4 µM (inactive)
GI50 [54]: > 100 µM (inactive)
GI50 [55]: > 100 µM (inactive)
GI50 [56]: > 100 µM (inactive)
GI50 [57]: > 100 µM (inactive)
GI50 [58]: 85.1 µM (inactive)

O=C1/C(=C/c2ccncc2)C(n2cccc2)c2c(Br)sc(Br)c21 (stereo not drawn)
GI50 [1]: 3.41 µM (inactive)
GI50 [2]: 22.7 µM (inactive)
GI50 [3]: 14.9 µM (inactive)
GI50 [4]: 4.95 µM (inactive)
GI50 [5]: 3.07 µM (inactive)
GI50 [59]: 3.26 µM (inactive)
GI50 [6]: 0.671 µM (active)
GI50 [7]: 10.4 µM (inactive)
GI50 [8]: 3.56 µM (inactive)
GI50 [9]: 3.1 µM (inactive)
GI50 [10]: 1.88 µM (inactive)
GI50 [11]: 2.79 µM (inactive)
GI50 [12]: 2.85 µM
GI50 [13]: 1.53 µM (inactive)
GI50 [14]: 3.03 µM (inactive)
GI50 [15]: 2.86 µM (inactive)
GI50 [16]: 4.82 µM (inactive)
GI50 [17]: 2.77 µM (inactive)
GI50 [18]: 1.96 µM (inactive)
GI50 [19]: 1.82 µM (inactive)
GI50 [20]: 11.3 µM (inactive)
GI50 [21]: 1.93 µM (inactive)
GI50 [22]: 0.263 µM (active)
GI50 [23]: 3.85 µM (inactive)
GI50 [24]: 2.25 µM (inactive)
GI50 [25]: 2.11 µM (inactive)
GI50 [26]: 2.52 µM (inactive)
GI50 [27]: 1.4 µM (inactive)
GI50 [28]: 3.02 µM (inactive)
GI50 [30]: 2.56 µM (inactive)
GI50 [31]: 4.39 µM (inactive)
GI50 [32]: 11.7 µM (inactive)
GI50 [33]: 14.3 µM (inactive)
GI50 [34]: 1.87 µM (inactive)
GI50 [36]: 14.3 µM (inactive)
GI50 [37]: 2.28 µM (inactive)
GI50 [38]: 4.41 µM (inactive)
GI50 [39]: 2.02 µM (inactive)
GI50 [40]: 1.88 µM (inactive)
GI50 [41]: 2.99 µM (inactive)
GI50 [42]: 13.3 µM (inactive)
GI50 [43]: 3.87 µM (inactive)
GI50 [44]: 2.65 µM (inactive)
GI50 [45]: 2.46 µM (inactive)
GI50 [46]: 13.7 µM (inactive)
GI50 [47]: 7.78 µM (inactive)
GI50 [48]: 4.39 µM (inactive)
GI50 [49]: 15.5 µM (inactive)
GI50 [50]: 3.53 µM (inactive)
GI50 [51]: 2.58 µM (inactive)
GI50 [52]: 1.57 µM (inactive)
GI50 [53]: 3.73 µM (inactive)
GI50 [54]: 4.2 µM (inactive)
GI50 [55]: 2.11 µM (inactive)
GI50 [56]: 2.1 µM (inactive)
GI50 [57]: 2.94 µM (inactive)
GI50 [58]: 2.29 µM (inactive)

CC1(C)OC(=C(C#N)C#N)C(C#N)=C1/C=C/c1ccncc1
GI50 [1]: 2.03 µM (inactive)
GI50 [2]: 7.69 µM (inactive)
GI50 [3]: 11.4 µM (inactive)
GI50 [4]: 1.87 µM (inactive)
GI50 [5]: 1.65 µM (inactive)
GI50 [59]: 1.97 µM (inactive)
GI50 [6]: 0.851 µM (active)
GI50 [7]: 1.88 µM (inactive)
GI50 [8]: 2.53 µM (inactive)
GI50 [9]: 2.32 µM (inactive)
GI50 [10]: 4.9 µM (inactive)
GI50 [11]: 1.91 µM (inactive)
GI50 [12]: 2.03 µM
GI50 [14]: 1.66 µM (inactive)
GI50 [15]: 2.42 µM (inactive)
GI50 [16]: 2.11 µM (inactive)
GI50 [17]: 3.33 µM (inactive)
GI50 [18]: 2.17 µM (inactive)
GI50 [19]: 3.14 µM (inactive)
GI50 [20]: 3.8 µM (inactive)
GI50 [21]: 1.86 µM (inactive)
GI50 [22]: 2.56 µM (inactive)
GI50 [23]: 2.04 µM (inactive)
GI50 [24]: 2.16 µM (inactive)
GI50 [25]: 3.45 µM (inactive)
GI50 [26]: 2.58 µM (inactive)
GI50 [27]: 2.03 µM (inactive)
GI50 [28]: 2.61 µM (inactive)
GI50 [29]: 2.43 µM (inactive)
GI50 [30]: 2.35 µM (inactive)
GI50 [31]: 6.53 µM (inactive)
GI50 [32]: 2.05 µM (inactive)
GI50 [33]: 2.03 µM (inactive)
GI50 [34]: 1.84 µM (inactive)
GI50 [35]: 2.96 µM (inactive)
GI50 [36]: 2.89 µM (inactive)
GI50 [37]: 1.75 µM (inactive)
GI50 [38]: 2.29 µM (inactive)
GI50 [39]: 1.65 µM (inactive)
GI50 [40]: 2.29 µM (inactive)
GI50 [41]: 2.21 µM (inactive)
GI50 [42]: 2.24 µM (inactive)
GI50 [43]: 1.8 µM (inactive)
GI50 [44]: 2.39 µM (inactive)
GI50 [45]: 2.66 µM (inactive)
GI50 [46]: 4.37 µM (inactive)
GI50 [47]: 4.66 µM (inactive)
GI50 [48]: 2.39 µM (inactive)
GI50 [49]: 2.59 µM (inactive)
GI50 [50]: 3.05 µM (inactive)
GI50 [51]: 2.41 µM (inactive)
GI50 [52]: 2.27 µM (inactive)
GI50 [53]: 2.48 µM (inactive)
GI50 [54]: 2.08 µM (inactive)
GI50 [55]: 1.85 µM (inactive)
GI50 [56]: 2.95 µM (inactive)
GI50 [57]: 1.95 µM (inactive)
GI50 [58]: 3.24 µM (inactive)

Reference: ChEMBL document CHEMBL1201862, “PubChem BioAssay data set” (2004)
